Counter-ions that a name gives are not always drawn.

Data set [1] relates to Convolvulus arvensis. Nature of the data set: soil-applied (pre-emergence) test in planted trays, visual percent inhibition. The settings on record: 336 h, read-out: % inhibition. B; for inhibition at 1000 g/ha: rate 1.0 KG/HECTARE. The class given is in vivo. The protocol:
(§1) Plastic trays were planted with green cynondon dactylon, convolvulus arvensis and sinapis arvensis and covered with a good grade of top soil. All materials were applied with a laboratory sprayer that delivered a volume of 187 1/hectare. The trays of soil were thereafter watered lightly to activate the aminotriazole salts. The experiment was conducted twice and each was arranged in a completely random design with three replications. Visual estimates of percent inhibition were made at two weeks after treatment.

Data set [2] concerns cynodon dactylon. The description is as above. The settings on record: 336 h; for inhibition at 1000 g/ha: rate 1.0 KG/HECTARE. The class given is in vivo. The protocol: as §1
Data set [3] deals with sinapis arvensis. The data set is described as above. In kind it is in vivo. The note with it: Mutarda arvensis, 336 h, read-out: % inhibition. C; for inhibition at 1000 g/ha: rate 1.0 KG/HECTARE. The protocol: as §1
The nature of data set [4]: solubility and crystallization of the salts in water. The note with it: for solubility: at room temperature. The class given is physicochemical.
Data set [5] concerns various plant species. Nature of the data set: post-emergence herbicidal activity, overall comparison. The class given is in vivo. The settings on record: for herbicidal activity compared with the related amine (IPA) salt: post-emergence, Tables II and III. An excerpt:
(§2) The spray, a water solution containing active ingredient and a surfactant is applied to the plants in different sets of pans at several rates (kilogram per dunam) of active ingredient. The treated plants are placed in a greenhouse and the effects are observed and recorded after 4 days (table II) and after 2 weeks (table III). The post-emergence herbicidal activity index used in Table II and III is as follows: […]

The subject of data set [6] is Agropyron repens (quackgrass). Kind of data set: post-emergence herbicidal activity (spray, greenhouse). Also: key: 0: No injury; 1: Slight injury; 2: Moderate injury; 3: Severe injury; 4: Killed. In kind it is in vivo. The settings on record: after 2 weeks; spray to 21 day old plants; active ingredient mole/l: I 0.022, II 0.043, III 0.03, IV 0.043, V 0.043.
Text: as §2

Data set [7] concerns Avena sterilis. The description is as above. In kind it is in vivo. The settings on record: after 2 weeks; spray to 21 day old plants; active ingredient mole/l: I 0.022, II 0.043, III 0.03, IV 0.043, V 0.043. Also: key: 0: No injury; 1: Slight injury; 2: Moderate injury; 3: Severe injury; 4: Killed.
Text: as §2

For data set [8], the system named is Convolvulus arvensis. The description is as above. The settings on record: after 2 weeks; spray to 21 day old plants; active ingredient mole/l: I 0.022, II 0.043, III 0.03, IV 0.043, V 0.043. In kind it is in vivo.
Text: as §2

Data set [9] deals with Cynodon daotylon. The description is as above. The note with it: after 2 weeks; spray to 21 day old plants; active ingredient mole/l: I 0.022, II 0.043, III 0.03, IV 0.043, V 0.043. The class given is in vivo.
Text: as §2

Data set [10] relates to Inula Viscosa. Described as above. The class given is in vivo. The note with it: after 2 weeks; spray to 21 day old plants; active ingredient mole/l: I 0.022, II 0.043, III 0.03, IV 0.043, V 0.043.
Text: as §2

The test system of data set [11] is Pennisetum clandestinum. The data set is described as above. The class given is in vivo. The settings on record: after 2 weeks; spray to 21 day old plants; active ingredient mole/l: I 0.022, II 0.043, III 0.03, IV 0.043, V 0.043.
Text: as §2

Data set [12] concerns Phragmites australis. The data set is described as above. In kind it is in vivo. The settings on record: after 2 weeks; spray to 21 day old plants; active ingredient mole/l: I 0.022, II 0.043, III 0.03, IV 0.043, V 0.043.
Text: as §2

The test system of data set [13] is Polygonum equiseliforme. The data set is described as above. In kind it is in vivo. The settings on record: after 2 weeks; spray to 21 day old plants; active ingredient mole/l: I 0.022, II 0.043, III 0.03, IV 0.043, V 0.043.
Text: as §2

The test system of data set [14] is Rubus Sanguineus. The description is as above. In kind it is in vivo. The note with it: after 2 weeks; spray to 21 day old plants; active ingredient mole/l: I 0.022, II 0.043, III 0.03, IV 0.043, V 0.043.
Text: as §2

Data set [15] relates to Cyperus Rotundus. In kind it is in vivo. The note with it: after 2 weeks; spray to 21 day old plants; active ingredient mole/l: I 0.022, II 0.043, III 0.03, IV 0.043, V 0.043. The source says:
The spray, a water solution containing active ingredient and a surfactant is applied to the plants in different sets of pans at several rates (kilogram per dunam) of active ingredient. […] The post-emergence herbicidal activity index used in Table II and III is as follows: […]

A short description of data set [16]: herbicidal activity when applied to the soil (statement in the text). In kind it is in vivo. The settings on record: soil application.
[17] abbreviates: rate 0.5 KG/HECTARE, two weeks after treatment.
[18] abbreviates: rate 1.5 KG/HECTARE, two weeks after treatment.
For post-emergence herbicidal activity index, TABLE III, F in this document: key: 0: No injury; 1: Slight injury; 2: Moderate injury; 3: Severe injury; 4: Killed.
For post-emergence herbicidal activity index, TABLE III, G in this document: key: 0: No injury; 1: Slight injury; 2: Moderate injury; 3: Severe injury; 4: Killed.

In the case of `O=C(O)CNCP(=O)(O)O` [I, Di(3-amino-1,2,4-triazole)NPMG salt], the results for the inhibition at 500 g/ha in data set [1] (setting [17]), in data set [2] (setting [17]) and in [3] (setting [17]) were 80%, 45% and 60%, respectively. Further, the figures for the inhibition at 1000 g/ha in data set [1] (two weeks after treatment), in data set [2] (two weeks after treatment) and in data set [3] (two weeks after treatment) were 90%, 80% and 90%, respectively. Moreover, the crystalization result in data set [4] (at 0^oc) is “no crystalization”. Besides, the solubility result in data set [4] (listed as NPMG-Diaminotriazole salt) is listed as “at least 1000 g/1”. Moreover, in data set [5] (applied to many species of weed, especially quackgrass), the antagonistic interaction entry is “no antagonistic interaction”. Also, in data set [5] (first 4 days after application, compared with amine salt IV), the “speed of phytotoxic action (knock down effect)” value is recorded as “faster phytotoxic action”. Also, the “herbicidal activity compared with the related amine (IPA) salt” value in [5] is recorded as “at least the same result”.

Consider `O=C(O)CN(CC(=O)O)CP(=O)(O)O` [II, Di(3-amino-1,2,4-triazole)NPMIDA salt], for which the “post-emergence herbicidal activity index, TABLE III, J” value in [6] was found to be 2. Also, the “post-emergence herbicidal activity index, TABLE III, H” value in [7] is 3. Further, the “post-emergence herbicidal activity index, TABLE III, G” value in data set [8] came to 2. Besides, in data set [9], the “post-emergence herbicidal activity index, TABLE III, F” value was found to be 2. Moreover, the “post-emergence herbicidal activity index, TABLE III, C” value in data set [10] came to 3. Also, the “post-emergence herbicidal activity index, TABLE III, E” value in data set [11] is recorded as 3. The “post-emergence herbicidal activity index, TABLE III, D” value in data set [12] is given as 3. The “post-emergence herbicidal activity index, TABLE III, A” value in data set [13] was 3. Besides, the “post-emergence herbicidal activity index, TABLE III, B” value in data set [14] is given as 2. For the same compound, the “post-emergence herbicidal activity index, TABLE III, I” value in data set [15] is reported as 3. Moreover, the inhibition at 700 g/ha in data set [1] stood at 55%; in [2] (read-out: % inhibition. A), 40%; in [3] it was 65%. Moreover, the inhibition at 1200 g/ha in [1] came to 70%; in data set [2] (read-out: % inhibition. A), 70%; in [3], 80%. Also, the “herbicidal activity compared with the related amine (IPA) salt” value in data set [5] is reported as “far more superior activity”.

Take `CP(=O)(O)CCC(N)C(=O)O` (stereo not drawn) [III, Di(3-amino-1,2,4-triazole)Phosphino-thricine salt.]: the “post-emergence herbicidal activity index, TABLE III, J” value in data set [6] is on record as 3. The “post-emergence herbicidal activity index, TABLE III, H” value in data set [7] came to 3. Also, the “post-emergence herbicidal activity index, TABLE III, G” value in data set [8] worked out at 3. For the same compound, the “post-emergence herbicidal activity index, TABLE III, F” value in data set [9] came to 3. Moreover, the “post-emergence herbicidal activity index, TABLE III, C” value in data set [10] is on record as 3. Besides, in [11], the “post-emergence herbicidal activity index, TABLE III, E” value is reported as 3. Further, in data set [12], the “post-emergence herbicidal activity index, TABLE III, D” value was 2. Further, the “post-emergence herbicidal activity index, TABLE III, A” value in data set [13] was found to be 3. Further, the “post-emergence herbicidal activity index, TABLE III, B” value in data set [14] is reported as 3. Further, in [15], the “post-emergence herbicidal activity index, TABLE III, I” value is recorded as 3. In addition, the inhibition at 1000 g/ha in data set [1] (two weeks after treatment) was determined as 30%; in data set [2] (two weeks after treatment), 10%; in data set [3] (two weeks after treatment) it was 30%. Moreover, the inhibition at 1500 g/ha in data set [1] (setting [18]) came out at 50%; in [2] (setting [18]), 20%; in data set [3] (setting [18]), 60%.

Consider `O=C(O)CNCP(=O)(O)O` [IV, Mono(Isopropylamine)NPMG salt (ROUNDUP^(R)), reference compound], for which the crystalization entry in [4] (at lower temperature (0-S^oc)) was “crystalization of the salt may occur”. The solubility in data set [4] (listed as NPMG.IPA) came to 480 g/1. Moreover, in [16], the “herbicidal activity when applied to the soil” value was “little herbicidal activity”.

Take `O=C(O)CN(CC(=O)O)CP(=O)(O)O` [V, Mono(Isopropylamine)NPMIDA salt, reference compound]: in data set [6], the “post-emergence herbicidal activity index, TABLE III, J” value is given as 1. For the same compound, the “post-emergence herbicidal activity index, TABLE III, H” value in data set [7] stood at 1. Besides, the “post-emergence herbicidal activity index, TABLE III, G” value in [8] is on record as 0. Moreover, the “post-emergence herbicidal activity index, TABLE III, F” value in data set [9] is 0. In addition, the “post-emergence herbicidal activity index, TABLE III, C” value in data set [10] is 2. Moreover, the “post-emergence herbicidal activity index, TABLE III, E” value in data set [11] was 1. Further, in data set [12], the “post-emergence herbicidal activity index, TABLE III, D” value is 1. Further, the “post-emergence herbicidal activity index, TABLE III, A” value in data set [13] was found to be 1. Moreover, in data set [14], the “post-emergence herbicidal activity index, TABLE III, B” value was 1. In data set [15], the “post-emergence herbicidal activity index, TABLE III, I” value was found to be 1.

The record behind these values is patent EP0146219A1, “Aminophosphonic & aminophosphinic acid derivatives processes for their preparation & herbicidal compositions containing them” (priority 1983, dated 1985).
